Laboratory results published in patent publication US20070276126A1, “Cell adhesion and extracellular matrix proteins” (Incyte Corporation, priority 2002, published 2007).

Tests used:
[1] = test system: expression of SEQ ID NO:78 in PHA blasts (T cell blasts derived from PBMCs); experiment: Microarray analysis of SEQ ID NO:78 expression in reactivated PHA blasts versus untreated PHA blasts; format: cell-based, human; settings: PHA blasts stimulated for 2 hours, versus matching untreated PHA blasts, one donor tested
Procedure: (§1) Total RNA is isolated from tissue samples using the guanidinium thiocyanate method and poly(A)^+ RNA is purified using the oligo-(dT) cellulose method. Each poly(A)^+ RNA sample is reverse transcribed using MMLV reverse-transcriptase, 0.05 pg/μl oligo-(dT) primer (21 mer), 1× first strand buffer, 0.03 units/μl RNase inhibitor, 500 μM dATP, 500 μM dGTP, 500 μM dTTP, 40 μM dCTP, 40 μM dCTP-Cy3 (BDS) or dCTP-Cy5 (Amersham Biosciences). The reverse transcription reaction is performed in a […] containing 200 ng poly(A)^+ RNA with GEMBRIGHT kits (Incyte). Specific control poly(A)^+ RNAs are synthesized by in vitro transcription from non-coding yeast genomic DNA. […]
(§2) Reporter-labeled hybridization complexes are detected with a microscope equipped with an Innova 70 mixed gas 10 W laser (Coherent, Inc., Santa Clara Calif.) capable of generating spectral lines at 488 nm for excitation of Cy3 and at 632 nm for excitation of Cy5. […]
(§3) A grid is superimposed over the fluorescence signal image such that the signal from each spot is centered in each element of the grid. The fluorescence signal within each element is then integrated to obtain a numerical value corresponding to the average intensity of the signal. […]

[2] = test system: expression of SEQ ID NO:78 in normal and Tangier disease derived fibroblasts; experiment: Microarray analysis of SEQ ID NO:78 expression in fibroblasts cultured in the presence versus absence of cholesterol; format: cell-based, human; settings: fibroblasts cultured in the presence of cholesterol versus same cell type in the absence of cholesterol (one of 'both types of comparisons')
Procedure: as §1, §2, §3

| SMILES | downregulation of SEQ ID NO:78 [1] | downregulation of SEQ ID NO:78 [2] |
| --- | --- | --- |
| CCCCCCCCCCCCCC(=O)O[C@@H]1[C@@H](C)[C@@]2(O)[C@@H](C=C(CO)C[C@]3(O)C(=O)C(C)=C[C@@H]23)[C@@H]2C(C)(C)[C@]12OC(C)=O [PMA, phorbol myristate acetate] | at least two | – |
| CC(C)CCC[C@@H](C)[C@H]1CC[C@H]2[C@@H]3CC=C4C[C@@H](O)CC[C@]4(C)[C@H]3CC[C@]12C [cholesterol] | – | at least two |
